Results from ChEMBL document CHEMBL2150981, “Discovery and optimization of benzotriazine di-N-oxides targeting replicating and nonreplicating Mycobacterium tuberculosis” (J Med Chem, 2012).
Values after ≈ are worked out from the molar mass of the structure shown.

Assays:
[1] = test system: Mycobacterium tuberculosis; assay: Antitubercular activity against Mycobacterium tuberculosis H37Rv isolate SRI after 5 days by resazurin-based microplate assay; type: functional; details: 120 h
[2] = test system: Mycobacterium tuberculosis; assay: Antitubercular activity against Mycobacterium tuberculosis H37Rv incubated for 10 days in anaerobic condition followed by 48 hrs incubation in aerobic condition by LORA assay; type: functional
[3] = test system: Vero; assay: Cytotoxicity against african green monkey Vero cells after 72 hrs by CellTiterGlo assay; details: chlorocebus sabaeus, vero, 72 h
[4] = Selectivity index, ratio of CC50 for Vero cells to MIC90 for Mycobacterium tuberculosis H37Rv isolate SRI; type: functional
[5] = test system: Mycobacterium tuberculosis; assay: Antitubercular activity against Mycobacterium tuberculosis H37Rv isolate ITR after 7 days by luminescence spectrometry; type: functional; details: 168 h

SMILES | MIC90 [1] [µg/mL] | MIC90 [2] [µg/mL] | CC50 [3] [µg/mL] | Selectivity Index [4] | MIC90 [5] [µg/mL]
[O-][n+]1nc(NC2CC2)[n+]([O-])c2ccccc21 | 2.5 (≈ 11.5 µM) | 1.8 (≈ 8.25 µM) | 21 (≈ 96.2 µM) | 8.3 | –
[O-][n+]1nc(NC2CCCC2)[n+]([O-])c2ccccc21 | 2.5 (≈ 10.2 µM) | 0.68 (≈ 2.76 µM) | 10 (≈ 40.6 µM) | 4.2 | 3.6 (≈ 14.6 µM)
COC(=O)/C=C/n1ccnc1[N+](=O)[O-] | 10 (≈ 50.7 µM) | 3.3 (≈ 16.7 µM) | 16 (≈ 81.2 µM) | 1.6 | 29 (≈ 147 µM)
CC(=O)Nc1cc(/C=C\c2ccc([N+](=O)[O-])o2)ns1 | 0.98 (≈ 3.51 µM) | 3.7 (≈ 13.2 µM) | > 50 | >50 | 3.8 (≈ 13.6 µM)
CSc1c(C)[n+]([O-])c2ccccc2[n+]1[O-] | 10 (≈ 45 µM) | 9.4 (≈ 42.3 µM) | > 16 | >1.6 | 28 (≈ 126 µM)
COCCNC(=O)c1ccc2c(c1)[n+]([O-])c(O)c(C#N)[n+]2[O-] | > 20 | > 32 | > 16 | – | –
COCCNC(=O)c1ccc2c(c1)[n+]([O-])c(C(C)=O)c(C)[n+]2[O-] | 10 (≈ 31.3 µM) | > 32 | > 16 | >1.6 | 27 (≈ 84.6 µM)
Cc1c(N2CCCC2)[n+]([O-])c2ccccc2[n+]1[O-] | > 10 | > 32 | > 16 | – | –
[O-][n+]1nc(NC2CCC2)[n+]([O-])c2ccccc21 | 1.2 (≈ 5.17 µM) | 0.84 (≈ 3.62 µM) | 8.9 (≈ 38.3 µM) | 7.1 | 0.94 (≈ 4.05 µM)
[O-][n+]1nc(NC2CCCCCC2)[n+]([O-])c2ccccc21 | 2.5 (≈ 9.11 µM) | 0.5 (≈ 1.82 µM) | 7.9 (≈ 28.8 µM) | 3.2 | 1.6 (≈ 5.83 µM)
CCCC(C)Nc1n[n+]([O-])c2ccccc2[n+]1[O-] (stereo unspecified) | 5 (≈ 20.1 µM) | 0.99 (≈ 3.99 µM) | 26 (≈ 105 µM) | 5.3 | 1.9 (≈ 7.65 µM)
CC(C)(C)C1CCC(Nc2n[n+]([O-])c3ccccc3[n+]2[O-])CC1 (stereo unspecified) | 0.62 (≈ 1.96 µM) | < 0.12 | 2.3 (≈ 7.27 µM) | 3.7 | 0.22 (≈ 0.695 µM)
CC(C)CCC(C)Nc1n[n+]([O-])c2ccccc2[n+]1[O-] (stereo unspecified) | 1.2 (≈ 4.34 µM) | 0.38 (≈ 1.38 µM) | 4.1 (≈ 14.8 µM) | 3.3 | 0.52 (≈ 1.88 µM)
[O-][n+]1nc(N[C@@H]2C[C@H]3CC[C@@H]2C3)[n+]([O-])c2ccccc21 | 0.62 (≈ 2.28 µM) | 0.42 (≈ 1.54 µM) | 3.4 (≈ 12.5 µM) | 5.5 | 0.6 (≈ 2.2 µM)
[H][C@]12C[C@]3([H])C[C@]([H])(C1)[C@H](Nc1n[n+]([O-])c4ccccc4[n+]1[O-])[C@]([H])(C2)C3 | 2.5 (≈ 8 µM) | 2.3 (≈ 7.36 µM) | 7.3 (≈ 23.4 µM) | 2.9 | 1.9 (≈ 6.08 µM)
CCNc1n[n+]([O-])c2cc(F)ccc2[n+]1[O-] | 0.62 (≈ 2.77 µM) | 0.75 (≈ 3.35 µM) | 4.6 (≈ 20.5 µM) | 7.3 | 0.35 (≈ 1.56 µM)
[O-][n+]1nc(NC2CC2)[n+]([O-])c2ccc(F)cc21 | 0.31 (≈ 1.31 µM) | 3.5 (≈ 14.8 µM) | 1.3 (≈ 5.5 µM) | 2.2 | 0.93 (≈ 3.94 µM)
[O-][n+]1nc(NC2CCC2)[n+]([O-])c2ccc(F)cc21 | 0.31 (≈ 1.24 µM) | 0.88 (≈ 3.52 µM) | 1.6 (≈ 6.39 µM) | 10 | 0.4 (≈ 1.6 µM)
[O-][n+]1nc(NC2CCCC2)[n+]([O-])c2ccc(F)cc21 | 0.31 (≈ 1.17 µM) | 0.34 (≈ 1.29 µM) | 2.3 (≈ 8.7 µM) | 7.3 | 0.33 (≈ 1.25 µM)
[O-][n+]1nc(NC2CCCCC2)[n+]([O-])c2ccc(F)cc21 | 0.62 (≈ 2.23 µM) | 0.47 (≈ 1.69 µM) | < 2.5 | <4 | 0.68 (≈ 2.44 µM)
[O-][n+]1nc(N[C@@H]2C[C@H]3CC[C@@H]2C3)[n+]([O-])c2ccc(F)cc21 | 0.31 (≈ 1.07 µM) | 0.21 (≈ 0.723 µM) | < 2.5 | <4 | < 0.12
CCNc1n[n+]([O-])c2cc(Cl)ccc2[n+]1[O-] | 1.2 (≈ 4.99 µM) | 0.41 (≈ 1.7 µM) | 2.6 (≈ 10.8 µM) | 2.1 | < 0.12
[O-][n+]1nc(NC2CC2)[n+]([O-])c2ccc(Cl)cc21 | 0.62 (≈ 2.45 µM) | 0.22 (≈ 0.871 µM) | 1.3 (≈ 5.15 µM) | 2.2 | 0.21 (≈ 0.831 µM)
[O-][n+]1nc(NC2CCC2)[n+]([O-])c2ccc(Cl)cc21 | 0.15 (≈ 0.562 µM) | < 0.12 | 1.6 (≈ 6 µM) | 10 | –

SMILES | MIC90 [1] [µg/mL] | MIC90 [2] [µg/mL] | CC50 [3] [µg/mL] | Selectivity Index [4] | MIC90 [5] [µg/mL]
[O-][n+]1nc(NC2CCCCC2)[n+]([O-])c2ccc(Cl)cc21 | 0.62 (≈ 2.1 µM) | 0.63 (≈ 2.14 µM) | 2.6 (≈ 8.82 µM) | 4.2 | 0.94 (≈ 3.19 µM)
[O-][n+]1nc(N[C@@H]2C[C@H]3CC[C@@H]2C3)[n+]([O-])c2ccc(Cl)cc21 | 0.15 (≈ 0.489 µM) | 0.23 (≈ 0.75 µM) | 1.1 (≈ 3.59 µM) | 7.3 | 0.22 (≈ 0.717 µM)
CCNc1n[n+]([O-])c2cc(Br)ccc2[n+]1[O-] | 0.62 (≈ 2.17 µM) | 0.46 (≈ 1.61 µM) | 4.2 (≈ 14.7 µM) | 6.7 | 0.49 (≈ 1.72 µM)
[O-][n+]1nc(NC2CCC2)[n+]([O-])c2ccc(Br)cc21 | 0.15 (≈ 0.482 µM) | 0.41 (≈ 1.32 µM) | 3.8 (≈ 12.2 µM) | 24 | 0.46 (≈ 1.48 µM)
[O-][n+]1nc(NC2CCCC2)[n+]([O-])c2ccc(Br)cc21 | 0.15 (≈ 0.461 µM) | 0.46 (≈ 1.41 µM) | 18 (≈ 55.4 µM) | 110 | 0.35 (≈ 1.08 µM)
[O-][n+]1nc(N[C@@H]2C[C@H]3CC[C@@H]2C3)[n+]([O-])c2ccc(Br)cc21 | 0.31 (≈ 0.883 µM) | 0.41 (≈ 1.17 µM) | 0.8 (≈ 2.28 µM) | 2.6 | 0.36 (≈ 1.03 µM)
CCNc1n[n+]([O-])c2cc(OC)ccc2[n+]1[O-] | 2.5 (≈ 10.6 µM) | 16 (≈ 67.7 µM) | – | 6.3 | 15 (≈ 63.5 µM)
COc1ccc2c(c1)[n+]([O-])nc(NC1CCC1)[n+]2[O-] | 0.62 (≈ 2.36 µM) | 0.9 (≈ 3.43 µM) | 9.8 (≈ 37.4 µM) | 16 | 0.96 (≈ 3.66 µM)
COc1ccc2c(c1)[n+]([O-])nc(N[C@@H]1C[C@H]3CC[C@@H]1C3)[n+]2[O-] | 0.62 (≈ 2.05 µM) | 1.6 (≈ 5.29 µM) | > 50 | >80 | 0.97 (≈ 3.21 µM)
Cc1cccc2c1[n+]([O-])c(NC1CCC1)n[n+]2[O-] | 0.31 (≈ 1.26 µM) | 0.43 (≈ 1.75 µM) | 22 (≈ 89.3 µM) | 70 | 0.47 (≈ 1.91 µM)
Cc1cccc2c1[n+]([O-])c(NC1CCCC1)n[n+]2[O-] | 0.31 (≈ 1.19 µM) | 0.27 (≈ 1.04 µM) | 3.7 (≈ 14.2 µM) | 12 | 0.43 (≈ 1.65 µM)
[O-][n+]1nc(N[C@@H]2C[C@H]3CC[C@@H]2C3)[n+]([O-])c2cc3c(cc21)CCC3 | 1.2 (≈ 3.84 µM) | 0.36 (≈ 1.15 µM) | > 50 | >41 | 0.93 (≈ 2.98 µM)
COc1cc2c(cc1C)[n+]([O-])nc(NC1CCC1)[n+]2[O-] | 2.5 (≈ 9.05 µM) | 2.9 (≈ 10.5 µM) | > 50 | >20 | 5.1 (≈ 18.5 µM)
COc1cc2c(cc1C)[n+]([O-])nc(N[C@@H]1C[C@H]3CC[C@@H]1C3)[n+]2[O-] | 5 (≈ 15.8 µM) | 3.5 (≈ 11.1 µM) | > 50 | >10 | 5.6 (≈ 17.7 µM)
O=S1(=O)CCN(c2n[n+]([O-])c3cc4c(cc3[n+]2[O-])CCC4)CC1 | 5 (≈ 14.9 µM) | 30 (≈ 89.2 µM) | 17 (≈ 50.5 µM) | 3.4 | 15 (≈ 44.6 µM)
CS(=O)(=O)N1CCN(c2n[n+]([O-])c3cc4c(cc3[n+]2[O-])CCC4)CC1 | 5 (≈ 13.7 µM) | 15 (≈ 41 µM) | > 50 | >10 | 13 (≈ 35.6 µM)
[O-][n+]1nc(N2CCOCC2)[n+]([O-])c2ccccc21 | 2.5 (≈ 10.1 µM) | 19 (≈ 76.5 µM) | 5.4 (≈ 21.8 µM) | 2.2 | 3.7 (≈ 14.9 µM)
CCc1n[n+]([O-])c2ccccc2[n+]1[O-] | 5 (≈ 26.2 µM) | 0.97 (≈ 5.07 µM) | 38 (≈ 199 µM) | 7.6 | 3.7 (≈ 19.4 µM)
C[C@@H](Nc1n[n+]([O-])c2ccccc2[n+]1[O-])C1CCCCC1 | 1.2 (≈ 4.16 µM) | 0.36 (≈ 1.25 µM) | 8.9 (≈ 30.9 µM) | 7.1 | 0.92 (≈ 3.19 µM)
CCN(CC)c1n[n+]([O-])c2ccccc2[n+]1[O-] | 0.31 (≈ 1.32 µM) | 1.3 (≈ 5.55 µM) | 12 (≈ 51.2 µM) | 40 | 0.46 (≈ 1.96 µM)
[O-][n+]1nc(NC2CCCCC2)[n+]([O-])c2ccccc21 | 2.5 (≈ 9.6 µM) | 0.75 (≈ 2.88 µM) | 8.9 (≈ 34.2 µM) | 3.6 | 3.8 (≈ 14.6 µM)
O=C(Cn1ccnc1[N+](=O)[O-])NCCO [ETANIDAZOLE] | > 10 | 26 (≈ 121 µM) | > 16 | – | > 32
NNC(=O)c1ccncc1 [ISONIAZID] | 0.06 (≈ 0.438 µM) | > 20 | > 50 | >830 | 0.091 (≈ 0.664 µM)
Cc1ncc([N+](=O)[O-])n1CCO [METRONIDAZOLE] | > 10 | 11 (≈ 64.3 µM) | > 16 | – | > 32
